According to patent publication US20170281806A1, “CHELATOR-TARGETING LIGAND CONJUGATES FOR CARDIOVASCULAR IMAGING” (priority 2009, published 2017):
Entries after “also recorded” stand apart in the source; their conditions may differ.

Experiments:
LAD zone = assay: Ischemic memory, acute model: SPECT, ex vivo imaging, gamma well counting; format: in vivo, dog; details: for activity in the LAD zone relative to the normal LCx zone (gamma well counter), FIG. 3: after reperfusion
Method: FIG. 2. Time line of protocol concerning ischemic memory. LAD flow was reduced by 75% tightening of a snare occluder in dogs to produce resting ischemia for 90 minutes followed by full perfusion. 99mTc-EC-glucosamine was injected 15 minutes after reflow with SPECT performed at one hour post injection.
In two dogs, LAD flow was reduced by 75% by tightening a snare occluder to produce resting ischemia for 90 minutes followed by full reperfusion. 99mTc-EC-glucosamine was injected 15 minutes after reflow with SPECT imaging performed at one hour post injection. No perfusion images were acquired in these studies, however, the perfusion image shown from another dog in the same position on the table is fused with the 99mTc-EC-glucosamine images for orientation purposes only (FIG. 2).
The heart slides were divided into 96 segments and counted in a gamma well counter for microsphere flow, Tl-201 activity, and 99mTc-EC-glucosamine uptake.

myocardium [1] = assay: Ischemic memory, chronic model; format: in vivo, dog; details: LAD flow reduced 90% for 90 minutes
Method: In a third dog, the protocol above was modified to examine 99mTc-EC-glucosamine uptake at later time points after reperfusion. In addition, the severity of the ischemic insult was increased such that LAD flow was reduced by 90% rather than 75% for 90 minutes. 99mTc-EC-glucosamine uptake was assessed at 48 hours and one week after reperfusion.

myocardium [2] = format: in vivo; details: dog
Method: In this model, one of the major coronary arteries, either the left anterior descending (LAD) or left circumflex (LCx) coronary artery and all visible collateral vessels are tied off for 120 minutes, followed by complete reflow of the vessels. The chest is closed and the dogs are recovered and followed for up to 8 weeks with MR and SPECT imaging. […] Autoradiography and gamma well counting of 99mTc activity is not possible when using a 99mTc perfusion agent at the same time as 99mTc-EC-glucosamine. […] It is possible that the improved labeling efficiency in the 72 hour and 1 week scans resulted from changes that were made in the instructions for reconsistituting the 99mTc-EC-glucosamine kits. […] This dog will undergo further imaging at 4 weeks and again at 7.5/8 weeks as described above.

LV = format: in vivo, dog
Text: In two dogs with right atrial pacing at 180 beats per minute (bpm) for 5 weeks, there was significant deterioration of cardiac ejection fraction at the 5 week timepoint with ejection fraction reduced to less than 25% in both cases.

Compound | uptake by in vivo SPECT (LAD zone; LAD flow reduced 75% for 90 minutes, injected 15 minutes after reflow, SPECT one hour post injection) | activity in the LAD zone relative to the normal LCx zone (gamma well counter), FIG. 3 (LAD zone) | uptake in mildly ischemic areas (LAD zone; flow reduced by 20-40% of normal) | activity relative to the normal zone, central ischemic zone (LAD zone; flow reduced by 60-80% of normal) | uptake in central and border zone ischemic areas (LAD zone; segments by degree of flow reduction during ischemia, FIG. 4) | uptake after reperfusion (myocardium [1]; 48 hours after reperfusion) | uptake after reperfusion (myocardium [1]; one week after reperfusion) | uptake in the heart (SPECT) (myocardium [2]; 48 hours post myocardial infarction) | uptake in the posterior wall (SPECT) (myocardium [2]; LCx occlusion, 72 hours post infarction, imaging 2 hours after injection) | uptake in the myocardium (SPECT) (myocardium [2]; baseline before infarction) | blood pool activity (LV; dog, in vivo) | uptake in the LV (SPECT) (LV; dogs, right atrial pacing 180 bpm for 5 weeks)
99mTc-ethylenedicysteine (EC) glucosamine [99mTc-EC-glucosamine] | focal 99mTc-EC-glucosamine hot spot in the apex of the heart; also recorded: focal hotspot | significantly higher | enhanced 99mTc-EC-glucosamine uptake | greater than 150% | enhanced | uptake was observed | no uptake | small focal hot spot | large amount of 99mTc-EC-glucosamine uptake | no 99mTc-EC-glucosamine uptake observed in the myocardium; also recorded: no 99mTc-EC-glucosamine was observed in the myocardium | significant amount of blood pool activity | –
[201Tl] [Tl-201, thallium-201, reference compound] | – | slightly reduced | – | – | – | – | – | – | – | – | – | –
CCOCC[PH+](CCOCC)CC[PH+](CCOCC)CCOCC.CCOCC[PH+](CCOCC)CC[PH+](CCOCC)CCOCC.[O]=[99Tc]=[O] [tetrofosmin, technetium Tc-99m tetrofosmin, reference compound] | – | – | – | – | – | – | – | – | – | – | – | not completely homogenous
